PubChem BioAssay (NCI)
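Where inhibition never reached the appropriate level, the endpoint shown equals the highest concentration tested. Otherwise, values were interpolated linearly from a five-concentration, 48-hour dose response in 96-well plates. TGI is the concentration that stops growth completely.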

What was measured:
Assay in all cases: inhibition of tumour cell growth, NCI panel, 48 h
UACC-257 melanoma = tested on: UACC-257 melanoma
SNB-19 CNS = tested on: SNB-19 CNS
HOP-62 NSCLC = tested on: HOP-62 NSCLC
786-0 renal = tested on: 786-0 renal
MDA-N = tested on: MDA-N
SF-539 CNS = tested on: SF-539 CNS
OVCAR-8 ovarian = tested on: OVCAR-8 ovarian
EKVX NSCLC = tested on: EKVX NSCLC
UACC-62 melanoma = tested on: UACC-62 melanoma
HT29 colon = tested on: HT29 colon
SK-MEL-2 melanoma = tested on: SK-MEL-2 melanoma
MCF7 breast = tested on: MCF7 breast
OVCAR-3 ovarian = tested on: OVCAR-3 ovarian
MALME-3M melanoma = tested on: MALME-3M melanoma
U251 CNS = tested on: U251 CNS
MDA-MB-435 = tested on: MDA-MB-435
OVCAR-4 ovarian = tested on: OVCAR-4 ovarian
SK-MEL-28 melanoma = tested on: SK-MEL-28 melanoma
SR leukemia = tested on: SR leukemia
NCI-H460 lung = tested on: NCI-H460 lung
NCI-H522 lung = tested on: NCI-H522 lung
TK-10 renal = tested on: TK-10 renal
SK-MEL-5 melanoma = tested on: SK-MEL-5 melanoma
LOX IMVI melanoma = tested on: LOX IMVI melanoma
SN12C renal = tested on: SN12C renal
M14 melanoma = tested on: M14 melanoma
HCC-2998 colon = tested on: HCC-2998 colon
OVCAR-5 ovarian = tested on: OVCAR-5 ovarian
HS 578T breast = tested on: HS 578T breast
NCI-H23 lung = tested on: NCI-H23 lung
KM12 colon = tested on: KM12 colon
HL-60(TB) leukemia = tested on: HL-60(TB) leukemia
COLO 205 colon = tested on: COLO 205 colon
CAKI-1 renal = tested on: CAKI-1 renal
K-562 leukemia = tested on: K-562 leukemia
HOP-92 NSCLC = tested on: HOP-92 NSCLC
NCI-H226 lung = tested on: NCI-H226 lung
A549 NSCLC = tested on: A549 NSCLC
A498 renal = tested on: A498 renal
T-47D breast = tested on: T-47D breast
BT-549 breast = tested on: BT-549 breast
SK-OV-3 ovarian = tested on: SK-OV-3 ovarian
PC-3 prostate = tested on: PC-3 prostate
SF-295 CNS = tested on: SF-295 CNS
NCI/ADR-RES ovarian = tested on: NCI/ADR-RES ovarian
SNB-75 CNS = tested on: SNB-75 CNS
RPMI-8226 leukemia = tested on: RPMI-8226 leukemia
SF-268 CNS = tested on: SF-268 CNS
RXF 393 renal = tested on: RXF 393 renal
HCT-116 colon = tested on: HCT-116 colon
HCT-15 colon = tested on: HCT-15 colon
CCRF-CEM leukemia = tested on: CCRF-CEM leukemia
SW-620 colon = tested on: SW-620 colon
UO-31 renal = tested on: UO-31 renal
DU-145 prostate = tested on: DU-145 prostate
ACHN renal = tested on: ACHN renal
MOLT-4 leukemia = tested on: MOLT-4 leukemia
IGROV1 ovarian = tested on: IGROV1 ovarian
MDA-MB-231 breast = tested on: MDA-MB-231 breast

O=c1cc(-c2ccccc2)oc2ccc(Oc3nnnn3-c3ccccc3)cc12
TGI (UACC-257 melanoma): > 100 µM | TGI (SNB-19 CNS): > 82.6 µM | TGI (HOP-62 NSCLC): > 82.3 µM | TGI (786-0 renal): > 100 µM | TGI (MDA-N): > 100 µM | TGI (SF-539 CNS): > 86.8 µM | TGI (OVCAR-8 ovarian): > 100 µM | TGI (EKVX NSCLC): > 100 µM | TGI (UACC-62 melanoma): > 100 µM | TGI (HT29 colon): > 100 µM | TGI (SK-MEL-2 melanoma): > 84.5 µM | TGI (MCF7 breast): > 100 µM | TGI (OVCAR-3 ovarian): > 100 µM | TGI (MALME-3M melanoma): > 100 µM | TGI (U251 CNS): > 74.7 µM | TGI (MDA-MB-435): > 41.9 µM | TGI (OVCAR-4 ovarian): > 100 µM | TGI (SK-MEL-28 melanoma): > 100 µM | TGI (SR leukemia): > 100 µM | TGI (NCI-H460 lung): > 100 µM | TGI (NCI-H522 lung): > 100 µM | TGI (TK-10 renal): > 100 µM | TGI (SK-MEL-5 melanoma): > 100 µM | TGI (LOX IMVI melanoma): > 100 µM | TGI (SN12C renal): > 100 µM | TGI (M14 melanoma): > 100 µM | TGI (HCC-2998 colon): > 100 µM | TGI (OVCAR-5 ovarian): > 100 µM | TGI (HS 578T breast): > 83 µM | TGI (NCI-H23 lung): > 93.2 µM | TGI (KM12 colon): > 100 µM | TGI (HL-60(TB) leukemia): > 100 µM | TGI (COLO 205 colon): > 100 µM | TGI (CAKI-1 renal): > 86.5 µM | TGI (K-562 leukemia): > 100 µM | TGI (HOP-92 NSCLC): 58.1 µM | TGI (NCI-H226 lung): > 100 µM | TGI (A549 NSCLC): > 100 µM | TGI (A498 renal): > 100 µM | TGI (T-47D breast): > 100 µM | TGI (BT-549 breast): 70.7 µM | TGI (SK-OV-3 ovarian): > 100 µM | TGI (PC-3 prostate): > 100 µM | TGI (SF-295 CNS): > 79.9 µM | TGI (NCI/ADR-RES ovarian): > 100 µM | TGI (SNB-75 CNS): > 92.5 µM | TGI (RPMI-8226 leukemia): > 100 µM | TGI (SF-268 CNS): 25.3 µM | TGI (RXF 393 renal): > 76.1 µM | TGI (HCT-116 colon): > 100 µM | TGI (HCT-15 colon): > 100 µM | TGI (CCRF-CEM leukemia): > 100 µM | TGI (SW-620 colon): > 100 µM | TGI (UO-31 renal): > 100 µM | TGI (DU-145 prostate): > 100 µM | TGI (ACHN renal): > 100 µM | TGI (MOLT-4 leukemia): > 100 µM | TGI (IGROV1 ovarian): > 100 µM

COc1ccccc1S(=O)Nc1ccccc1 (centres undefined)
TGI (UACC-257 melanoma): > 100 µM | TGI (MDA-MB-231 breast): > 100 µM | TGI (SNB-19 CNS): > 100 µM | TGI (HOP-62 NSCLC): > 100 µM | TGI (786-0 renal): > 100 µM | TGI (MDA-N): > 100 µM | TGI (SF-539 CNS): > 100 µM | TGI (OVCAR-8 ovarian): > 100 µM | TGI (EKVX NSCLC): > 100 µM | TGI (UACC-62 melanoma): > 100 µM | TGI (HT29 colon): > 100 µM | TGI (SK-MEL-2 melanoma): > 100 µM | TGI (MCF7 breast): > 100 µM | TGI (OVCAR-3 ovarian): > 100 µM | TGI (MALME-3M melanoma): > 100 µM | TGI (U251 CNS): > 100 µM | TGI (MDA-MB-435): > 100 µM | TGI (OVCAR-4 ovarian): > 100 µM | TGI (SK-MEL-28 melanoma): > 100 µM | TGI (SR leukemia): > 100 µM | TGI (NCI-H460 lung): > 100 µM | TGI (NCI-H522 lung): > 100 µM | TGI (TK-10 renal): > 100 µM | TGI (SK-MEL-5 melanoma): > 100 µM | TGI (LOX IMVI melanoma): > 100 µM | TGI (SN12C renal): > 100 µM | TGI (HCC-2998 colon): > 100 µM | TGI (OVCAR-5 ovarian): > 100 µM | TGI (HS 578T breast): > 100 µM | TGI (NCI-H23 lung): > 100 µM | TGI (KM12 colon): 85.1 µM | TGI (HL-60(TB) leukemia): > 100 µM | TGI (COLO 205 colon): > 100 µM | TGI (K-562 leukemia): > 100 µM | TGI (NCI-H226 lung): > 100 µM | TGI (A549 NSCLC): > 100 µM | TGI (T-47D breast): 95.5 µM | TGI (BT-549 breast): > 100 µM | TGI (SF-295 CNS): > 100 µM | TGI (NCI/ADR-RES ovarian): > 100 µM | TGI (RPMI-8226 leukemia): > 100 µM | TGI (SF-268 CNS): > 100 µM | TGI (HCT-116 colon): > 100 µM | TGI (HCT-15 colon): > 100 µM | TGI (CCRF-CEM leukemia): > 100 µM | TGI (SW-620 colon): > 100 µM | TGI (UO-31 renal): > 100 µM | TGI (DU-145 prostate): > 100 µM | TGI (ACHN renal): > 100 µM | TGI (MOLT-4 leukemia): > 100 µM | TGI (IGROV1 ovarian): > 100 µM
